Reference: PubChem BioAssay (NCI)
Several values for one entry are separate records, joined by “and”; a condition that tells them apart may be missing. Equal entries are not always repeated.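 Five compound concentrations were applied to cells in 96-well plates for 48 hours; endpoints were derived by simple linear interpolation of the resulting dose-response curve. At the GI50, growth is halved. TGI marks complete inhibition of growth.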

Tests used:
Assay in all cases: DTP human tumour cell line panel, 48 h
786-0 renal = tested on: 786-0 renal
A498 renal = tested on: A498 renal
BT-549 breast = tested on: BT-549 breast
CAKI-1 renal = tested on: CAKI-1 renal
CCRF-CEM leukemia = tested on: CCRF-CEM leukemia
COLO 205 colon = tested on: COLO 205 colon
DU-145 prostate = tested on: DU-145 prostate
EKVX NSCLC = tested on: EKVX NSCLC
HCC-2998 colon = tested on: HCC-2998 colon
HCT-116 colon = tested on: HCT-116 colon
HCT-15 colon = tested on: HCT-15 colon
HL-60(TB) leukemia = tested on: HL-60(TB) leukemia
HOP-62 NSCLC = tested on: HOP-62 NSCLC
HOP-92 NSCLC = tested on: HOP-92 NSCLC
HS 578T breast = tested on: HS 578T breast
HT29 colon = tested on: HT29 colon
IGROV1 ovarian = tested on: IGROV1 ovarian
K-562 leukemia = tested on: K-562 leukemia
KM12 colon = tested on: KM12 colon
LOX IMVI melanoma = tested on: LOX IMVI melanoma
M14 melanoma = tested on: M14 melanoma
MALME-3M melanoma = tested on: MALME-3M melanoma
MCF7 breast = tested on: MCF7 breast
MDA-MB-231 breast = tested on: MDA-MB-231 breast
MDA-MB-435 = tested on: MDA-MB-435
MOLT-4 leukemia = tested on: MOLT-4 leukemia
NCI-H23 lung = tested on: NCI-H23 lung
NCI-H460 lung = tested on: NCI-H460 lung
NCI-H522 lung = tested on: NCI-H522 lung
NCI/ADR-RES ovarian = tested on: NCI/ADR-RES ovarian
OVCAR-4 ovarian = tested on: OVCAR-4 ovarian
OVCAR-5 ovarian = tested on: OVCAR-5 ovarian
OVCAR-8 ovarian = tested on: OVCAR-8 ovarian
PC-3 prostate = tested on: PC-3 prostate
RPMI-8226 leukemia = tested on: RPMI-8226 leukemia
RXF 393 renal = tested on: RXF 393 renal
SF-268 CNS = tested on: SF-268 CNS
SF-539 CNS = tested on: SF-539 CNS
SK-MEL-28 melanoma = tested on: SK-MEL-28 melanoma
SK-OV-3 ovarian = tested on: SK-OV-3 ovarian
SN12C renal = tested on: SN12C renal
SNB-19 CNS = tested on: SNB-19 CNS
SNB-75 CNS = tested on: SNB-75 CNS
SW-620 colon = tested on: SW-620 colon
T-47D breast = tested on: T-47D breast
TK-10 renal = tested on: TK-10 renal
U251 CNS = tested on: U251 CNS
UACC-62 melanoma = tested on: UACC-62 melanoma
UO-31 renal = tested on: UO-31 renal

`C/C=C/C1=CN2C(=O)c3cc(OC4OC(C)C(NC)C(C)(O)C4O)c(C)cc3N=C[C@@H]2C1` (stereo partly specified) gave a GI50 (786-0 renal) of 22.6 nM, a TGI (786-0 renal) of 49.3 nM and a GI50 (A498 renal) of 17.3 nM. It also gave a TGI (A498 renal) of 31.9 nM, a GI50 (BT-549 breast) of 19.1 nM and a TGI (BT-549 breast) of 40.8 nM. For the same molecule, the GI50 (CAKI-1 renal) was 39.1 nM, the GI50 (CCRF-CEM leukemia) was 13 nM and the GI50 (COLO 205 colon) was 17.5 nM. It also gave a TGI (COLO 205 colon) of 41.1 nM, a GI50 (DU-145 prostate) of 38.2 nM and a TGI (DU-145 prostate) of 1580 nM. The GI50 (EKVX NSCLC) was 242 nM, the TGI (EKVX NSCLC) was 20.3 nM and the GI50 (HCC-2998 colon) was 58.5 nM. It also gave a TGI (HCC-2998 colon) of 336 nM, a TGI (HCT-116 colon) of 11600 nM and a GI50 (HCT-15 colon) of 174 nM. The TGI (HCT-15 colon) was 11500 nM, the GI50 (HL-60(TB) leukemia) was 21.1 nM and the TGI (HL-60(TB) leukemia) was 101 nM. For the same molecule, the GI50 (HOP-62 NSCLC) was 22.2 nM, the TGI (HOP-62 NSCLC) was 70.3 nM and the GI50 (HOP-92 NSCLC) was 68.7 nM. The TGI (HOP-92 NSCLC) was over 100000 nM, the GI50 (HS 578T breast) was 53.9 nM and the GI50 (HT29 colon) was 24.2 nM. For the same molecule, the TGI (HT29 colon) was 66 nM, the GI50 (IGROV1 ovarian) was 30 nM and the GI50 (K-562 leukemia) was 25.8 nM. It also gave a GI50 (KM12 colon) of 34.5 nM, a TGI (KM12 colon) of 544 nM and a GI50 (LOX IMVI melanoma) of 13.3 nM. The TGI (LOX IMVI melanoma) was 41.5 nM, the GI50 (M14 melanoma) was 14.1 nM and the TGI (M14 melanoma) was 31.2 nM. For the same molecule, the GI50 (MALME-3M melanoma) was 20.1 nM, the TGI (MALME-3M melanoma) was 39.6 nM and the GI50 (MCF7 breast) was 8.47 nM. For the same molecule, the TGI (MCF7 breast) was 11900 nM, the GI50 (MDA-MB-231 breast) was 35.7 nM and the TGI (MDA-MB-231 breast) was 17100 nM. For the same molecule, the GI50 (MDA-MB-435) was 15.8 nM, the TGI (MDA-MB-435) was 32 nM and the GI50 (MOLT-4 leukemia) was 12.4 nM. The TGI (MOLT-4 leukemia) was 178 nM, the GI50 (NCI-H23 lung) was 19.7 nM and the TGI (NCI-H23 lung) was 282 nM. It also gave a GI50 (NCI-H460 lung) of 23.7 nM, a GI50 (NCI-H522 lung) of 7.62 nM and a TGI (NCI-H522 lung) of 30.1 nM. The TGI (NCI/ADR-RES ovarian) was 735 nM, the GI50 (OVCAR-4 ovarian) was 25.8 nM and the GI50 (OVCAR-5 ovarian) was 43.1 nM. It also gave a TGI (OVCAR-5 ovarian) of 10400 nM, a GI50 (OVCAR-8 ovarian) of 17.9 nM and a TGI (OVCAR-8 ovarian) of 87 nM. For the same molecule, the GI50 (PC-3 prostate) was 44.1 nM, the TGI (PC-3 prostate) was 26800 nM and the GI50 (RPMI-8226 leukemia) was 24.6 nM. For the same molecule, the TGI (RPMI-8226 leukemia) was 94.7 nM, the GI50 (RXF 393 renal) was 14 nM and the TGI (RXF 393 renal) was 31.5 nM. It also gave a GI50 (SF-268 CNS) of 21.6 nM, a TGI (SF-268 CNS) of 37.2 nM and a GI50 (SF-539 CNS) of 18.3 nM. It also gave a TGI (SF-539 CNS) of 137 nM, a GI50 (SK-MEL-28 melanoma) of 22.5 nM and a TGI (SK-MEL-28 melanoma) of 50.8 nM. The TGI (SK-OV-3 ovarian) was 11900 nM, the GI50 (SN12C renal) was 33 nM and the TGI (SN12C renal) was 11100 nM. The GI50 (SNB-19 CNS) was 30.7 nM, the TGI (SNB-19 CNS) was 12400 nM and the GI50 (SNB-75 CNS) was 15.9 nM. The TGI (SNB-75 CNS) was 55.5 nM, the GI50 (SW-620 colon) was 22.4 nM and the GI50 (T-47D breast) was 24.7 nM. For the same molecule, the GI50 (TK-10 renal) was 26.4 nM, the TGI (TK-10 renal) was 68.3 nM and the GI50 (U251 CNS) was 14.8 nM. For the same molecule, the TGI (U251 CNS) was 245 nM and 130 nM, the GI50 (UACC-62 melanoma) was 16.7 nM and the TGI (UACC-62 melanoma) was 36.1 nM. The GI50 (UO-31 renal) was 24 nM and the TGI (UO-31 renal) was 59.6 nM.
